For 71 molecules, IC50 results are on record in patent publication US20130035329A1, “THERAPEUTICALLY ACTIVE COMPOSITIONS AND THEIR METHODS OF USE” (priority 2009, published 2013).

Molecules are shown by their SMILES.

IDH1 R132H, sequence (O75874 whole entry R132H): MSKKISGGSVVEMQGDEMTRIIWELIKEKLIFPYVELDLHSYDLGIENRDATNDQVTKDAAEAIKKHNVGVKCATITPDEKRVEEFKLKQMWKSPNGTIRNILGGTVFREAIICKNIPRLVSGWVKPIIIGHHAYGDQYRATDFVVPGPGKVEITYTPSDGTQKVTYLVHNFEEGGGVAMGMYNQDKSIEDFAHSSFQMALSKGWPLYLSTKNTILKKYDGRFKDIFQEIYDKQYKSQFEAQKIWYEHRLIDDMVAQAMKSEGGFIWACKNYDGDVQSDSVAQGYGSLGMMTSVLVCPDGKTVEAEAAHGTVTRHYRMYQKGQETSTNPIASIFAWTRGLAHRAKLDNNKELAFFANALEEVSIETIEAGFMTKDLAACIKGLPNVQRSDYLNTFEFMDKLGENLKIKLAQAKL

The target in the assay is IDH1 R132H (Homo sapiens, UniProt O75874, R132H). The assay is described as follows: High Throughput Screening (HTS) for IDH1 R132H inhibitors (resazurin/NADPH fluorescence assay). It is filed as biochemical. The conditions noted are these: IDH1m; assay similar to Example 1; class symbols. How it is done:
A compound described herein may be an inhibitor of IDH1m. […] B refers to an inhibitor of IDH1m with an IC50 between 1 μM and 50 μM. C refers to an inhibitor of IDH1m with an IC50 greater than 50 μM. D refers to a compound wherein an IC50 is not available.
Assays were conducted in a volume of 76 μl assay buffer (150 mM NaCl, 10 mM MgCl2, 20 mM Tris pH 7.5, 0.03% bovine serum albumin) as follows in a standard 384-well plate: To 25 ul of substrate mix (8 uM NADPH, 2 mM aKG), 1 μl of test compound was added in DMSO. The plate was centrifuged briefly, and then 25 μl of enzyme mix was added (0.2 μg/ml ICDH1 R132H) followed by a brief centrifugation and shake at 100 RPM. The reaction was incubated for 50 minutes at room temperature, then 25 μl of detection mix (30 μM resazurin, […]) was added and the mixture further incubated for 5 minutes at room temperature. The conversion of resazurin to resorufine was detected by fluorescent spectroscopy at Ex544 Em590 c/o 590.
For orientation: Resazurin is reduced to fluorescent resorufin, in cell work by metabolically active cells.
Usually IC50 stands for the concentration that gives 50% inhibition. `CCCCc1ccc(NS(=O)(=O)c2ccc(C)c(C(=O)N3CCN(c4ccccn4)CC3)c2)cc1` registered an IC50 of 1 to 50 µM.
Consider `CCCc1ccc(NS(=O)(=O)c2cccc(C(=O)N3CCN(c4ccccc4)CC3)c2)cc1`, for which the concentration for half-maximal inhibition (IC50) was in the range of 1 to 50 µM.
For `Cc1ccc(S(=O)(=O)Nc2ccc(C(C)C)cc2)cc1C(=O)N1CCN(c2ccccc2)CC1` the value was 1 to 50 µM; for `COc1ccccc1N1CCCN(C(=O)c2cccc(S(=O)(=O)Nc3ccc(C(C)C)cc3)c2)CC1`, 1 to 50 µM.
Consider `CCCCc1ccc(NS(=O)(=O)c2ccc(C)c(C(=O)N3CCN(c4ccncc4)CC3)c2)cc1`, for which the half-maximal inhibitory concentration (IC50) lay in the range of 1 to 50 µM.
`CCCCc1ccc(NS(=O)(=O)c2cccc(C(=O)N3CCN(c4ccccc4OC)CC3)c2)cc1` returned an IC50 of 1 to 50 µM.
For the molecule `CCCCc1ccc(NS(=O)(=O)c2ccc(C)c(C(=O)N3CCN(c4ccccc4Cl)CC3)c2)cc1`, the IC50 is < 1 µM.
The molecule `CCCCc1ccc(NS(=O)(=O)c2cccc(C(=O)N3CCN(c4ccncc4)CC3)c2)cc1` had an IC50 of 1 to 50 µM.
Turning to `CCCCc1ccc(NS(=O)(=O)c2ccc(C)c(C(=O)N3CCN(c4ccccc4-c4ccccc4)CC3)c2)cc1`, the IC50 lay in the range of 1 to 50 µM.
For `CCCCc1ccc(NS(=O)(=O)c2ccc(C)c(C(=O)N3CCN(c4ccccc4C(C)C)CC3)c2)cc1` the value was 1 to 50 µM.
For `COc1ccccc1N1CCN(C(=O)c2cc(S(=O)(=O)Nc3ccc(OCc4cn(Cc5ccccc5)nn4)cc3)ccc2C)CC1`, the half-inhibitory concentration (IC50) is 1 to 50 µM.
Regarding `COc1ccccc1N1CCN(C(=O)c2cc(S(=O)(=O)Nc3ccc(C)c4cccnc34)ccc2C)CC1`, the IC50 fell in the range of 1 to 50 µM.
For `CCCCc1ccc(NS(=O)(=O)c2ccc(N3CCOCC3)c(C(=O)N3CCN(c4ccccc4OC)CC3)c2)cc1` the value was 1 to 50 µM; for `CCCCc1ccc(NS(=O)(=O)c2ccc(N3CCCC3)c(C(=O)N3CCN(c4ccccc4OC)CC3)c2)cc1`, 1 to 50 µM; for `CCCCc1ccc(C(=O)Nc2ccc(C)c(C(=O)N3CCN(c4ccccc4OC)CC3)c2)cc1`, 1 to 50 µM.
`CCCCc1ccc(OC(=O)Nc2ccc(C)c(C(=O)N3CCN(c4ccccc4OC)CC3)c2)cc1`: the IC50 was > 50 µM.
In the case of `Cc1ccc(S(=O)(=O)Nc2ccc(Cl)cc2)cc1C(=O)N1CCN(c2ccccn2)CC1`, the IC50 was > 50 µM.
For `COc1ccccc1N1CCN(C(=O)c2cccc(S(=O)(=O)Nc3ccccc3F)c2)CC1` the value was > 50 µM; for `O=C(c1cccc(S(=O)(=O)Nc2ccccc2F)c1)N1CCN(c2ccccc2)CC1`, > 50 µM; for `COc1ccc(NS(=O)(=O)c2cccc(C(=O)N3CCN(c4ccccc4)CC3)c2)cc1`, > 50 µM.
For `COc1ccc(NS(=O)(=O)c2cccc(C(=O)N3CCN(c4ccccc4OC)CC3)c2)cc1` the value was > 50 µM; for `CCOc1ccc(NS(=O)(=O)c2cccc(C(=O)N3CCCN(c4ccccc4OC)CC3)c2)cc1`, > 50 µM.
With `Cc1ccc(S(=O)(=O)Nc2ccc(Cl)cc2)cc1C(=O)N1CCN(c2ccccc2)CC1`, the half-maximal inhibitory concentration (IC50) is > 50 µM.
For `COc1ccccc1NS(=O)(=O)c1cccc(C(=O)N2CCCN(c3ccccc3OC)CC2)c1` the value was > 50 µM.
For `Cc1cc(F)ccc1NS(=O)(=O)c1cccc(C(=O)N2CCN(c3ccccn3)CC2)c1` the value was > 50 µM; for `CCCc1ccccc1NS(=O)(=O)c1cccc(C(=O)N2CCN(c3ccccc3)CC2)c1`, 1 to 50 µM.
For `CCOc1ccc(NS(=O)(=O)c2ccc(C)c(C(=O)N3CCN(c4ccccn4)CC3)c2)cc1`, the IC50 was > 50 µM.
With `CCCCc1ccc(NS(=O)(=O)c2cccc(C(=O)N3CCN(c4ncc(C)cc4Cl)CC3)c2)cc1`, the IC50 lay within 1 to 50 µM.
As for `COc1ccccc1N1CCN(C(=O)c2cccc(NS(=O)(=O)c3cccc4cccnc34)c2)CC1`, the IC50 was > 50 µM.
For the molecule `CCCCc1ccc(NS(=O)(=O)c2cccc(C(=O)N3CCN(c4ccccn4)CC3)c2)cc1`, the IC50 fell in the range of 1 to 50 µM.
For `CC(C)(C)c1ccc(NS(=O)(=O)c2cccc(C(=O)N3CCN(c4ccccc4)CC3)c2)cc1` the value was 1 to 50 µM; for `CCCCc1ccc(NS(=O)(=O)c2ccc(C)c(C(=O)N3CCN(c4ccccc4OC)CC3)c2)cc1`, < 1 µM.
In turn, `CCCCc1ccc(NS(=O)(=O)c2cccc(C(=O)N3CCN(c4ncccn4)CC3)c2)cc1` had an IC50 of 1 to 50 µM.
Take `CCCCc1ccc(NS(=O)(=O)c2cccc(C(=O)N3CCN(c4ncc(C(F)(F)F)cc4Cl)CC3)c2)cc1`: the IC50 was 1 to 50 µM.
On to `CCCCOc1ccc(NS(=O)(=O)c2ccc(C)c(C(=O)N3CCN(c4ccccc4OC)CC3)c2)cc1`, for which the IC50 is 1 to 50 µM.
The molecule `CCCOc1ccc(NS(=O)(=O)c2ccc(C)c(C(=O)N3CCN(c4ccccc4OC)CC3)c2)cc1` yielded an IC50 of 1 to 50 µM.
Take `COc1ccccc1N1CCN(C(=O)c2cc(S(=O)(=O)Nc3ccc(OCC4CC4)cc3)ccc2C)CC1`: the IC50 was in the range of 1 to 50 µM.
For the molecule `COc1ccccc1N1CCN(C(=O)c2cc(S(=O)(=O)Nc3ccc(C)cc3)ccc2C)CC1`, the IC50 was 1 to 50 µM.
On to `CCc1ccc(NS(=O)(=O)c2ccc(C)c(C(=O)N3CCN(c4ccccc4OC)CC3)c2)cc1`, for which the IC50 lay in the range of 1 to 50 µM.
In turn, `COc1ccc(NS(=O)(=O)c2ccc(C)c(C(=O)N3CCN(c4ccccc4OC)CC3)c2)cc1` showed an IC50 of 1 to 50 µM.
On to `CCCCc1ccc(NS(=O)(=O)c2ccc(C)c(C(=O)N3CCN(c4cccnc4OC)CC3)c2)cc1`, for which the concentration for half-maximal inhibition (IC50) was 1 to 50 µM.
For `CCCc1ccc(NS(=O)(=O)c2ccc(C)c(C(=O)N3CCN(c4ccccc4OC)CC3)c2)cc1` the value was 1 to 50 µM.
In turn, `COc1ccccc1N1CCN(C(=O)c2cc(S(=O)(=O)Nc3ccc(CCc4ccccc4)cc3)ccc2C)CC1` returned an IC50 of 1 to 50 µM.
The molecule `CCCCc1ccc(NS(=O)(=O)c2ccc(F)c(C(=O)N3CCN(c4ccccc4OC)CC3)c2)cc1` registered an IC50 of 1 to 50 µM.
In turn, `CCCCc1ccc(NS(=O)(=O)c2ccc(C)c(C(=O)N3CCN(C(=O)NCC(C)C)CC3)c2)cc1` displayed a concentration for half-maximal inhibition (IC50) of 1 to 50 µM.
`CCCCc1ccc(NS(=O)(=O)c2ccc(C)c(C(=O)N3CCN(Cc4cccc(C)c4)CC3)c2)cc1` gave an IC50 of 1 to 50 µM.
For `CCCCc1ccc(NS(=O)(=O)c2ccc(C)c(C(=O)N3CCN(C(=O)C4CC4)CC3)c2)cc1` the value was 1 to 50 µM; for `CCCCc1ccc(NS(=O)(=O)c2ccc(C)c(C(=O)N3CCN(C(=O)c4cscn4)CC3)c2)cc1`, 1 to 50 µM; for `CCCCc1ccc(NS(=O)(=O)c2ccc(C)c(C(=O)N3CCN(Cc4ccccc4C)CC3)c2)cc1`, 1 to 50 µM.
`CCCCc1ccc(NS(=O)(=O)c2ccc(C)c(C(=O)N3CCN(Cc4cc(C)c(C)cc4C)CC3)c2)cc1`: the IC50 is 1 to 50 µM.
For `CCCCc1ccc(NS(=O)(=O)c2ccc(C)c(C(=O)N3CCN(C(=O)OCC)CC3)c2)cc1` the value was 1 to 50 µM; for `CCCCc1ccc(NS(=O)(=O)c2ccc(C)c(C(=O)N3CCN(CCCc4ccccc4)CC3)c2)cc1`, 1 to 50 µM.
In turn, `CCCCc1ccc(NS(=O)(=O)c2cccc(C(=O)N3CCN(c4ccccc4OC)CC3)c2)c(C(=O)O)c1` had an IC50 of 1 to 50 µM.
For `CCCCc1ccc(NS(=O)(=O)c2ccc(C)c(C(=O)N3CCN(c4ccc(F)cc4)CC3)c2)cc1` the value was 1 to 50 µM; for `CCCCc1ccc(NS(=O)(=O)c2ccc(C)c(C(=O)N3CCN(c4cccc(C(F)(F)F)c4)CC3)c2)cc1`, 1 to 50 µM; for `CCCCc1ccc(NS(=O)(=O)c2ccc(C)c(C(=O)N3CCN(c4ccc(OC)c(F)c4)CC3)c2)cc1`, 1 to 50 µM.
In turn, `COc1ccccc1N1CCN(C(=O)c2cc(S(=O)(=O)Nc3cccc4cccnc34)ccc2C)CC1` gave an IC50 of 1 to 50 µM.
As to `COc1ccccc1N1CCN(C(=O)c2cc(S(=O)(=O)Nc3cccc4cc[nH]c34)ccc2C)CC1`, the IC50 lay in the range of 1 to 50 µM.
As for `CCCCc1ccc(NS(=O)(=O)c2ccc(C)c(C(=O)N3CCN(c4ccccc4OCc4ccccc4)CC3)c2)cc1`, the IC50 lay within 1 to 50 µM.
As for `CCCCc1ccc(NS(=O)(=O)c2ccc(C)c(C(=O)N3CCN(c4ccccc4Oc4ccccc4)CC3)c2)cc1`, the half-inhibitory concentration (IC50) is 1 to 50 µM.
Consider `CCOC(=O)COc1ccc(NS(=O)(=O)c2ccc(C)c(C(=O)N3CCN(c4ccccc4OC)CC3)c2)cc1`, for which the IC50 was in the range of 1 to 50 µM.
`CCOC(=O)C(C)Oc1ccc(NS(=O)(=O)c2ccc(C)c(C(=O)N3CCN(c4ccccc4OC)CC3)c2)cc1` (centres unmarked): the IC50 is 1 to 50 µM.
Molecule `CCCCc1ccc(NS(=O)(=O)c2ccc(C)c(C(=O)N3CCN(c4ccnc(N(C)C)c4)CC3)c2)cc1` yielded a concentration for half-maximal inhibition (IC50) of 1 to 50 µM.
The molecule `CCCCc1ccc(NS(=O)(=O)c2ccc(C)c(C(=O)N3CCN(c4c(Cl)cccc4Cl)CC3)c2)cc1` came in with a half-inhibitory concentration (IC50) of 1 to 50 µM.
The molecule `CCCCc1ccc(NS(=O)(=O)c2ccc(C)c(C(=O)N3CCN(c4ccccc4OCCc4ccccc4)CC3)c2)cc1` yielded an IC50 of 1 to 50 µM.
`CCCCc1ccc(NS(=O)(=O)c2ccc(C)c(C(=O)N3CCN(c4ccccc4OCC(C)C)CC3)c2)cc1` yielded an IC50 of 1 to 50 µM.
The molecule `COC(=O)C(C)Nc1ccc(NS(=O)(=O)c2ccc(C)c(C(=O)N3CCN(c4ccccc4OC)CC3)c2)cc1` (centres unmarked) showed an IC50 of 1 to 50 µM.
As for `CCCCc1ccc(NS(=O)(=O)c2ccc(C)c(C(=O)N3CCN(c4ccc(OC)c(OC)c4)CC3)c2)cc1`, the IC50 is 1 to 50 µM.
On to `CCCCc1ccc(NS(=O)(=O)c2ccc(Br)c(C(=O)N3CCN(c4ccccc4OC)CC3)c2)cc1`, for which the IC50 is 1 to 50 µM.
For `COCOc1ccc(NS(=O)(=O)c2ccc(C)c(C(=O)N3CCN(c4ccccc4C)CC3)c2)cc1` the value was 1 to 50 µM; for `COCCOCOc1ccc(NS(=O)(=O)c2ccc(C)c(C(=O)N3CCN(c4ccccc4C)CC3)c2)cc1`, 1 to 50 µM.
